Results: the METLIN SMRT retention time set (Domingo-Almenara et al. 2019)

Assay: gradient 5% acetonitrile 3 min, to 50% in 2 min, to 85% in 15 min, held 3 min, 100 µL/min
Details: column: Zorbax Extend-C18 2.1 x 50 mm; eluents: water / acetonitrile, 0.1% formic acid
How it was run: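 Retention times of pure standards were taken from adduct peaks that were selected by computer and manually inspected. Over 3 months, mixtures of ~100 molecules were run by HPLC–quadrupole time-of-flight mass spectrometry in positive and negative ionization mode. The Zorbax Extend-C18 column (2.1 × 50 mm, 1.8 μm) ran at 100 μL/min in water and acetonitrile, each containing 0.1% formic acid, with 40 μL dead volume and 900 μL dwell volume.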

SMILES | RP-LC retention time [s]
CC(C)NC(=O)N1CCCC(c2cccc(C(=O)NC(C)c3ccc(F)cc3)c2)C1 (centres undefined) | 907
O=C(Nc1ccc(Br)cc1F)Nc1c(-c2ccncc2)nc2ccccn12 | 652
Cc1noc(C2(NC(=O)Cc3ccc(F)cc3)CCCCC2)n1 | 837
Cc1cnc(C2CN(C(=O)c3ccnn3C)C2)n1CC1CC1 | 568
CCOC(=O)N1CCN(c2ncc(C(=O)Nc3ccc(OCC)cc3)c(N)n2)CC1 | 718
COc1ccc(C(C)NC(=O)Cc2c[nH]c3ncccc23)cc1OC (centres undefined) | 664
COCCCNC(=O)C1c2cc(OC)c(OC)cc2C(=O)N(C)C1c1ccc(SC)cc1 (centres undefined) | 607
CCOc1cc(=O)c(C(N)=O)nn1-c1ccc(F)c(F)c1 | 637
Cc1ccc(C2NC(=O)N(CC(=O)Nc3cc(F)cc(F)c3)C3=C2C(=O)OC3)cc1 (centres undefined) | 844
CCCn1cc(C(=O)NCCN2CCOCC2)c2cccnc21 | 586
O=C(NCCCN1CCCCCC1)c1nnc(-c2ccc(S(=O)(=O)N3CCCC3)cc2)o1 | 648
Cc1ccccc1CNC(=O)CN1CCN(Cc2ccc(F)cc2Cl)C1=O | 629
Cc1cc2nc(C(F)(F)F)c(=O)n(C(C)C(=O)NCCN(C)C)c2cc1C (centres undefined) | 695
O=C1NCCCn2cc(S(=O)(=O)Nc3cccc(F)c3)cc21 | 663
COc1cc(-c2cccc(Cl)c2)nc2ccc(NC(=O)c3ccco3)cc12 | 790
COc1cccc(CNC(=O)CCc2c(-c3ccc(Br)cc3)nc3ccccn23)c1 | 698
Cn1c(CNC(=O)CCc2cc3ccccc3[nH]c2=O)nc2ccccc21 | 601
O=C(Cc1nnc(-c2ccc3ncccc3c2)o1)NCc1ccc(F)c(Cl)c1 | 733
CCS(=O)(=O)N1CC(=O)N(c2ccc(C)c(Cl)c2)C(C)(C(=O)NC2CCCCCC2)C1 (centres undefined) | 1010
O=C(NCc1ccccc1)C1CCN(S(=O)(=O)c2cc(-c3noc(C4CC4)n3)cs2)CC1 | 935
Cc1noc(CNC(=O)C2CCN(C(=O)c3ccc(S(=O)(=O)N(C)C)cc3)CC2)n1 | 618

SMILES | RP-LC retention time [s]
CCc1nc2oc3cc(OC)ccc3c(=O)c2c(=O)n1-c1ccc(C)cc1 | 809
COc1ccc(CNC(=O)c2cc(-c3ccccc3)ns2)cc1 | 905
CCc1ccc(CNC(=O)c2cc3c(=O)n(C)ccc3n2C)cc1 | 746
Cc1cccc(C)c1Nc1c(-c2ccc(N3CCOCC3)cc2)nc2cnc(Br)cn12 | 1100
C=CCN1CCN(C(=O)C2CCN(c3cc(Nc4ccc(C)cc4)ncn3)CC2)CC1 | 572
CN1C(=O)COc2cc(-c3noc(C(=O)NC4CC4)n3)ccc21 | 718
CCCCN1C(=O)C(C)(C(=O)Nc2cc(C)ccc2C)Oc2cccnc21 (centres undefined) | 1110
CCc1cccc(C)c1Nc1c(-c2ccc(SC)cc2)nc2ncccn12 | 916
COc1ccc(CN2C[C@@H](CO)[C@H](c3ccncc3)C2)cc1C | 542
COc1ccc(-c2nnc(COc3ccc(NC(=O)c4ccccn4)cc3)o2)cc1 | 930
CCN(C(=O)CSC1=Nc2ccccc2NC(CC(=O)OC)=C1)c1cccc(C)c1 | 1160
Cc1oc2c(c1C(=O)Nc1ccc(Br)cc1)C1=NCCN1C=N2 | 644
Cc1cc(C(=O)N2CCCCC2)c2c(=O)n(CC(=O)Nc3ccc(F)cc3F)c(=O)n(C)c2n1 | 816
Cc1ccc(C)c(N2CCN(Cc3nc(-c4ccc(N5CCCC(C)C5)nc4)no3)CC2)c1 (centres undefined) | 1280
O=C1CCc2cc(NC(=O)c3cccc(C(F)(F)F)c3)ccc2N1 | 717
CCOCC(=O)N(C)CCc1noc(-c2ccc(C(=O)N3CCCC3)cc2)n1 | 648
COc1cc(C(=O)NC2CCN(c3cc(-c4ccc(Cl)cc4)[nH]n3)C2)cc(OC)c1OC (centres undefined) | 767
CCOc1ccc(NC(=O)C2CCN(S(=O)(=O)c3ccc4c(c3)NC(=O)CO4)CC2)cc1 | 801
C#C[C@]1(O)CC[C@H]2[C@@H]3CCC4=Cc5oncc5CC4(C)[C@H]3CCC21C (some centres undefined) | 1180
O=C(CSCc1ccccc1)NCC1CCN(C(=O)Oc2ccccc2)CC1 | 853
COc1ccccc1NC(=O)N1CCN(c2cnn3c(C)nnc3c2)CC1 | 605

Results, then the molecule that gave them:

RP-LC retention time [s] | SMILES
923 | O=C(c1cc2ccccc2[nH]1)N1CCN(c2cc(-c3ccc(Cl)cc3)[nH]n2)CC1
716 | COC(=O)c1cnn(-c2ccc(C(=O)NC3CCCC3)cc2)c1N
1100 | CCOc1ccc(-c2csc3c(=O)n(CC(C)C)cnc23)cc1OCC
740 | CN(CCC#N)c1ccc(NC(=O)c2ccc(Br)cc2)cc1C(=O)O
966 | O=C(Nc1ccc2c(c1)OCCO2)N1c2ccccc2CC1c1nc(C2CC2)no1 (centres undefined)
981 | N#Cc1cc(-c2ccccc2)[nH]c1-c1nccc2ccccc12
985 | CCN1C(=O)c2ccccc2Oc2ccc(C(=O)NCC(C)c3ccccc3)cc21 (centres undefined)
827 | Cc1nnc(-c2ccc3ccn(CC(=O)N4CCN(c5ccc(F)cc5)CC4)c3c2)o1
845 | CCOC(=O)c1ccc(N2C=C(C(=O)N3CCCC3)S(=O)(=O)c3ccc(F)cc32)cc1
731 | COCCN1C(=O)CCc2cc(NC(=O)Cc3ccccc3OC)ccc21
888 | CCCCCCCCCC(=O)NC(CN1CCOCC1)[C@H](O)c1ccccc1 (some centres undefined)
737 | COc1ccccc1C(=O)N1C[C@H](c2nc(-c3ccncc3)no2)[C@@H](C)C1
765 | O=C(Nc1cccc(NC(=O)c2cccc(O)c2O)c1)c1cccc(O)c1O
574 | COC(=O)N1CCN(CCNC(=O)Cc2cccc3ccccc23)CC1
838 | CCc1ccccc1NC(=O)C1CCN(S(=O)(=O)c2ccc3c(c2)NC(=O)C(C)O3)CC1 (centres undefined)
675 | CC(C)Cn1c(-c2ccccc2)nc2ccccc21
914 | CCCCn1nc2c(S(=O)(=O)N3CCc4ccccc4C3)cccn2c1=O
1030 | COc1ccc(OC)c(S(=O)(=O)Cc2nc(-c3ccc(Cl)cc3)no2)c1
623 | CSc1ncc2ncn(C3OC(CO)C(O)C3O)c2n1 (centres undefined)
615 | COc1ccc(S(=O)(=O)N(CC(=O)NO)CC(C)C)cc1
685 | CN1C(=O)c2cc(C(=O)NCc3ccccc3)nn2CC1(C)C(=O)NCc1ccccc1 (centres undefined)
891 | O=C(CCn1nnc2cc(-c3noc(C4CCCCC4)n3)ccc21)N1CCOCC1
720 | C#CCCNC(=O)c1ccc(C)c(C)c1
1330 | Cc1ccc(Sc2nccnc2N2CCCC(C(=O)N3CCN(c4ccccc4C)CC3)C2)cc1 (centres undefined)

RP-LC retention time [s] | SMILES
753 | O=C(C(=O)N1CCN(c2ccc(F)cc2)CC1)c1ccc[nH]1
697 | CCOc1ccc(C(C)NC(=O)c2cn3ccc(C)cc3n2)cc1 (centres undefined)
798 | CC(=O)N1CCCc2ccc(NC(=O)COc3ccc(F)cc3)cc21
980 | O=S(=O)(NCc1ccco1)c1ccc(Cl)c(-c2nnc(-c3ccccc3)o2)c1
1070 | Cc1c(C(=O)N2CCSCC2)cnn1-c1cc(-c2nc(C(C)(C)C)no2)ccn1
604 | CCCC(=O)NCc1c(-c2ccccc2)nc2n1CCS2
1080 | Cc1ccc(Nc2c(-c3ccccc3O)nc3ccc(Cl)cn23)cc1
928 | CCc1ccc(C2=C(C)C(N3CCC(NC(=O)NC(C)(C)C)CC3)=NS2(=O)=O)cc1
951 | Cc1nc(-c2ccc3c(c2)CCN3C(=O)c2ccc3c(c2)OCO3)cs1
1290 | COc1nc2ccccc2nc1N1CCCC(C(=O)Nc2cc(C)c(Br)cc2C)C1 (centres undefined)
811 | Cc1ccnc(NC(=O)C2CCN(S(=O)(=O)c3cc(-c4noc(C5CC5)n4)ccc3C)CC2)c1
904 | COc1cccc(NC(=O)Cn2nc3c(Oc4cc(C)cc(C)c4)nccn3c2=O)c1
976 | CCN1C(=O)COc2ccc(-c3csc(NC(=O)c4ccc(OC)cc4)n3)cc21
765 | Cn1c(=O)c(N2CCN(S(=O)(=O)c3ccc4c(c3)CCCC4)CC2)nc2ccncc21
678 | O=C(NCCc1nc2cccnc2n1Cc1ccccc1)NCc1ccco1
983 | CCNC(=O)c1cnn(-c2ccc(-c3nc(C(C)C)no3)cn2)c1C
773 | CCn1nccc1C(=O)NCCn1c(=O)n(Cc2ccc(C)cc2)c2cccnc21
869 | CCn1cc(-c2ccc(F)cc2)cc1C(=O)N1CCOCC1
840 | COc1ccc(C(=O)NCc2ccccc2OC(F)(F)F)nn1
854 | CCc1noc(NC(C)=O)c1-c1ccc(OC)c(S(=O)(=O)Nc2cc(C)ccc2OC)c1
740 | COCCN1CCC2(CCC1=O)CCN(C(=O)Nc1ccc(Br)cc1)CC2
845 | O=C(NCc1ccc2c(c1)OCO2)C1COC2(CCCCC2)N1C(=O)c1cccc(F)c1 (centres undefined)
698 | CCC1Oc2ccc(C)cc2N(CC(=O)NCCN2CCc3ccccc3C2)C1=O (centres undefined)
